This is an account of results in PMC10392092, “Structural and molecular basis for urea recognition by Prochlorococcus” (The Journal of Biological Chemistry, 2023).

Common to all, as to experiment: isothermal titration calorimetry
Holding throughout (type): binding
In general terms: In ITC the heat of successive injections is recorded.

Test [1] has as its target T1, UrtA (Prochlorococcus marinus, UniProt Q7V3V9, Y141A).
T1 construct: 24-residue predicted signal peptide removed from 431-residue precursor (432 elsewhere in the source); C-terminal 6xHis tag, pET-22b, E. coli BL21(DE3); about 50 kDa; monomer; structure residues 38-431 described

The target of test [2] is T2, UrtA (Prochlorococcus marinus, UniProt Q7V3V9, F192A).
T2 construct: 24-residue predicted signal peptide removed from 431-residue precursor (432 elsewhere in the source); C-terminal 6xHis tag, pET-22b, E. coli BL21(DE3); about 50 kDa; monomer; structure residues 38-431 described
T2 sequence (Q7V3V9 entry or part of it F192A): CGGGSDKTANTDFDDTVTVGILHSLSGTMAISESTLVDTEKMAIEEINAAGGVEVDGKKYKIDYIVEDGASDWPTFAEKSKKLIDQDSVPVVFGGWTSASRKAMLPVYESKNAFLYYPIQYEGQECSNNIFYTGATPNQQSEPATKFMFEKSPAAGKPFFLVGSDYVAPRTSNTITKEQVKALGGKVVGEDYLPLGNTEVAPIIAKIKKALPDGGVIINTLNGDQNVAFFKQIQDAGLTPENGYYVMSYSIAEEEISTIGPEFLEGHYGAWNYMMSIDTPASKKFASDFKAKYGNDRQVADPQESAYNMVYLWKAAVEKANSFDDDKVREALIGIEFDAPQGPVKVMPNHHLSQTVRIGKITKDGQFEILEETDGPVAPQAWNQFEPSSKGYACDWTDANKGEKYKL

For test [3], the target named is T3, UrtA (Prochlorococcus marinus, UniProt Q7V3V9, E146A).
T3 construct: 24-residue predicted signal peptide removed from 431-residue precursor (432 elsewhere in the source); C-terminal 6xHis tag, pET-22b, E. coli BL21(DE3); about 50 kDa; monomer; structure residues 38-431 described
T3 sequence (Q7V3V9 entry or part of it E146A): as the sequence (Q7V3V9 entry or part of it F192A) above, with E122A, A168F counted along it

The target of test [4] is T4, UrtA (Prochlorococcus marinus, UniProt Q7V3V9).
T4 construct: 24-residue predicted signal peptide removed from 431-residue precursor (432 elsewhere in the source); C-terminal 6xHis tag, pET-22b, E. coli BL21(DE3); about 50 kDa; monomer; structure residues 38-431 described
T4 sequence (Q7V3V9 25-431): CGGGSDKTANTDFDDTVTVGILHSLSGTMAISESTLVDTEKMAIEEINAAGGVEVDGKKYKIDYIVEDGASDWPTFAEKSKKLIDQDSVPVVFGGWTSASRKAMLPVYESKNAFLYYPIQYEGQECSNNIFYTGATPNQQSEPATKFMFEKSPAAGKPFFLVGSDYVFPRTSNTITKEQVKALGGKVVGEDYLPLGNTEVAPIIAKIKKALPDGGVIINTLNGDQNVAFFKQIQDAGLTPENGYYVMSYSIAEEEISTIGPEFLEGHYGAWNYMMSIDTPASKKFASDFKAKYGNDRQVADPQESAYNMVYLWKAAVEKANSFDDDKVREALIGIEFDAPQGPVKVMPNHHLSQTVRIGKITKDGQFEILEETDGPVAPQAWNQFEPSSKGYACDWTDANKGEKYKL

Test [5] has as its target T5, UrtA (Prochlorococcus marinus, UniProt Q7V3V9, W120A).
T5 construct: 24-residue predicted signal peptide removed from 431-residue precursor (432 elsewhere in the source); C-terminal 6xHis tag, pET-22b, E. coli BL21(DE3); about 50 kDa; monomer; structure residues 38-431 described
The settings on record: pH 8.0, 20 mM Tris-HCl, 200 mM NaCl, 25 °C.

The target in test [6] is T6, UrtA (Prochlorococcus marinus, UniProt Q7V3V9, S274A).
T6 construct: 24-residue predicted signal peptide removed from 431-residue precursor (432 elsewhere in the source); C-terminal 6xHis tag, pET-22b, E. coli BL21(DE3); about 50 kDa; monomer; structure residues 38-431 described
T6 sequence (Q7V3V9 entry or part of it S274A): as the sequence (Q7V3V9 entry or part of it F192A) above, with A168F, S250A counted along it

A word on the Kd: it is the concentration at which binding is half-saturated. High values mean a looser complex, low ones a tighter complex.

SMILES strings stand for the structures.

T5 sequence (Q7V3V9 entry or part of it W120A): as the sequence (Q7V3V9 entry or part of it F192A) above, with W96A, A168F counted along it
T1 sequence (Q7V3V9 entry or part of it Y141A): as the sequence (Q7V3V9 entry or part of it F192A) above, with Y117A, A168F counted along it

Consider `NC(N)=O` [urea], for which the Kd was 7.95 ± 1.22 µM on UrtA [1]; 0.114 ± 0.0267 µM on UrtA [2]; 3.05 ± 0.609 µM at UrtA [3]; 0.141 ± 0.0112 µM on UrtA [4]; “the mutant W120A was unable to bind to urea” on UrtA [5]; 1.28 ± 0.639 µM on UrtA [6].
